Experimental data published in patent publication US9006235B2, “Inhibitors of human immunodeficiency virus replication” (priority 2012, dated 2015).
Read-outs that look alike come from different tables or passages of the source.

System: recombinant NL-Rluc virus
Test: Inhibition of HIV replication (NL-Rluc virus, luciferase readout in MT-2 cells)
Format: cell-based
Conditions: Human immunodeficiency virus 1, MT2, 120 h

| Compound | EC50 [nM] | EC50 (read-out: Activity) [nM] |
| --- | --- | --- |
| Cc1nc2cc(NCCC(F)(F)F)nn2c(-c2cc(F)c3c(c2C)CCCO3)c1[C@H](OC(C)(C)C)C(=O)O [Example 48, (2S)-2-(tert-butoxy)-2-(7-(8-fluoro-5-methylchroman-6-yl)-5-methyl-2-((3,3,3-trifluoropropyl)amino)pyrazolo[1,5-a]pyrimidin-6-yl)acetic acid] | 340 | 100 to 1000 |
| Cc1nc2cc(NC(=O)CCCOc3ccccc3)nn2c(-c2cc(F)c3c(c2C)CCCO3)c1[C@H](OC(C)(C)C)C(=O)O [Example 27, (2S)-2-tert-butoxy-2-(7-(8-fluoro-5-methylchroman-6-yl)-5-methyl-2-(4-phenoxybutanamido)pyrazolo[1,5-a]pyrimidin-6-yl)acetic acid] |  | 100 to 1000 |
| COc1ccc(CCC(=O)Nc2cc3nc(C)c([C@H](OC(C)(C)C)C(=O)O)c(-c4cc(F)c5c(c4C)CCCO5)n3n2)cc1 [Example 23, (2S)-2-tert-butoxy-2-(7-(8-fluoro-5-methylchroman-6-yl)-2-(3-(4-methoxyphenyl)propanamido)-5-methylpyrazolo[1,5-a]pyrimidin-6-yl)acetic acid] | 170 | 100 to 1000 |
| Cc1nc2cc(N3CCCC3)nn2c(-c2cc(F)c3c(c2C)CCCO3)c1[C@H](OC(C)(C)C)C(=O)O [Example 51, (2S)-2-(tert-butoxy)-2-(7-(8-fluoro-5-methylchroman-6-yl)-5-methyl-2-(pyrrolidin-1-yl)pyrazolo[1,5-a]pyrimidin-6-yl)acetic acid] |  | 100 to 1000 |
| Cc1nc2cc(NC(=O)CCc3ccccc3)nn2c(-c2cc(F)c3c(c2C)CCCO3)c1[C@H](OC(C)(C)C)C(=O)O [Example 16, (2S)-2-tert-butoxy-2-(7-(8-fluoro-5-methylchroman-6-yl)-5-methyl-2-(3-phenylpropanamido)pyrazolo[1,5-a]pyrimidin-6-yl)acetic acid] |  | 100 to 1000 |
| Cc1nc2cc(NCCCc3ccccc3)nn2c(-c2cc(F)c3c(c2C)CCCO3)c1[C@H](OC(C)(C)C)C(=O)O [Example 41, (2S)-2-(tert-butoxy)-2-(7-(8-fluoro-5-methylchroman-6-yl)-5-methyl-2-((3-phenylpropyl)amino)pyrazolo[1,5-a]pyrimidin-6-yl)acetic acid] | 50 | < 100 |
| Cc1nc2cc(NC(=O)c3cccc(OCc4ccccc4)c3)nn2c(-c2cc(F)c3c(c2C)CCCO3)c1[C@H](OC(C)(C)C)C(=O)O [Example 7, (2S)-2-(2-(3-(benzyloxy)benzamido)-7-(8-fluoro-5-methylchroman-6-yl)-5-methylpyrazolo[1,5-a]pyrimidin-6-yl)-2-tert-butoxyacetic acid] |  | < 100 |
| Cc1nc2cc(NC(=O)COCc3ccccc3)nn2c(-c2cc(F)c3c(c2C)CCCO3)c1[C@H](OC(C)(C)C)C(=O)O [Example 9, (2S)-2-(2-(2-(benzyloxy)acetamido)-7-(8-fluoro-5-methylchroman-6-yl)-5-methylpyrazolo[1,5-a]pyrimidin-6-yl)-2-tert-butoxyacetic acid] |  | < 100 |
| Cc1nc2cc(NC(=O)CCCCCC(C)(C)C)nn2c(-c2cc(F)c3c(c2C)CCCO3)c1[C@H](OC(C)(C)C)C(=O)O [Example 20, (2S)-2-tert-butoxy-2-(2-(7,7-dimethyloctanamido)-7-(8-fluoro-5-methylchroman-6-yl)-5-methylpyrazolo[1,5-a]pyrimidin-6-yl)acetic acid] |  | < 100 |
| CCOc1ccccc1C(=O)Nc1cc2nc(C)c([C@H](OC(C)(C)C)C(=O)O)c(-c3cc(F)c4c(c3C)CCCO4)n2n1 [Example 19, (2S)-2-tert-butoxy-2-(2-(2-ethoxybenzamido)-7-(8-fluoro-5-methylchroman-6-yl)-5-methylpyrazolo[1,5-a]pyrimidin-6-yl)acetic acid] |  | < 100 |
| Cc1nc2cc(NCCC(C)C)nn2c(-c2cc(F)c3c(c2C)CCCO3)c1[C@H](OC(C)(C)C)C(=O)O [Example 43, (2S)-2-(tert-butoxy)-2-(7-(8-fluoro-5-methylchroman-6-yl)-2-(isopentylamino)-5-methylpyrazolo[1,5-a]pyrimidin-6-yl)acetic acid] |  | < 100 |
| Cc1nc2cc(NC(=O)C(Oc3ccccc3)C(C)C)nn2c(-c2cc(F)c3c(c2C)CCCO3)c1[C@H](OC(C)(C)C)C(=O)O (mixture of isomers) [Example 24, (2S)-2-tert-butoxy-2-(7-(8-fluoro-5-methylchroman-6-yl)-5-methyl-2-(3-methyl-2-phenoxybutanamido)pyrazolo[1,5-a]pyrimidin-6-yl)acetic acid] |  | < 100 |
| Cc1nc2cc(NC3CCCC3)nn2c(-c2cc(F)c3c(c2C)CCCO3)c1[C@H](OC(C)(C)C)C(=O)O [Example 49, (2S)-2-(tert-butoxy)-2-(2-(cyclopentylamino)-7-(8-fluoro-5-methylchroman-6-yl)-5-methylpyrazolo[1,5-a]pyrimidin-6-yl)acetic acid] |  | 100 to 1000 |
| Cc1nc2cc(NCCc3ccccc3)nn2c(-c2cc(F)c3c(c2C)CCCO3)c1[C@H](OC(C)(C)C)C(=O)O [Example 39, (2S)-2-(tert-butoxy)-2-(7-(8-fluoro-5-methylchroman-6-yl)-5-methyl-2-(phenethylamino)pyrazolo[1,5-a]pyrimidin-6-yl)acetic acid] |  | < 100 |
| Cc1nc2cc(NCCCC3CCCC3)nn2c(-c2cc(F)c3c(c2C)CCCO3)c1[C@H](OC(C)(C)C)C(=O)O [Example 42, (2S)-2-(tert-butoxy)-2-(2-((3-cyclopentylpropyl)amino)-7-(8-fluoro-5-methylchroman-6-yl)-5-methylpyrazolo[1,5-a]pyrimidin-6-yl)acetic acid] |  | < 100 |
| COc1cc(C(=O)Nc2cc3nc(C)c([C@H](OC(C)(C)C)C(=O)O)c(-c4cc(F)c5c(c4C)CCCO5)n3n2)cc(OC)c1OC [Example 29, (2S)-2-tert-butoxy-2-(7-(8-fluoro-5-methylchroman-6-yl)-5-methyl-2-(3,4,5-trimethoxybenzamido)pyrazolo[1,5-a]pyrimidin-6-yl)acetic acid] |  | 100 to 1000 |
| Cc1nc2cc(N)nn2c(-c2cc(F)c3c(c2C)CCCO3)c1[C@H](OC(C)(C)C)C(=O)O [Example 1, (2S)-2-(2-amino-7-(8-fluoro-5-methylchroman-6-yl)-5-methylpyrazolo[1,5-a]pyrimidin-6-yl)-2-tert-butoxyacetic acid] | 2480 | > 1000 |
| Cc1ccc(CCNc2cc3nc(C)c([C@H](OC(C)(C)C)C(=O)O)c(-c4cc(F)c5c(c4C)CCCO5)n3n2)cc1 [Example 40, (2S)-2-(tert-butoxy)-2-(7-(8-fluoro-5-methylchroman-6-yl)-5-methyl-2-((4-methylphenethyl)amino)pyrazolo[1,5-a]pyrimidin-6-yl)acetic acid] |  | < 100 |
| COc1ccc(C(=O)Nc2cc3nc(C)c([C@H](OC(C)(C)C)C(=O)O)c(-c4cc(F)c5c(c4C)CCCO5)n3n2)cc1OC [Example 15, (2S)-2-tert-butoxy-2-(2-(3,4-dimethoxybenzamido)-7-(8-fluoro-5-methylchroman-6-yl)-5-methylpyrazolo[1,5-a]pyrimidin-6-yl)acetic acid] | 260 | 100 to 1000 |
| Cc1nc2cc(NC(=O)c3cccc(F)c3)nn2c(-c2cc(F)c3c(c2C)CCCO3)c1[C@H](OC(C)(C)C)C(=O)O [Example 5, (2S)-2-tert-butoxy-2-(7-(8-fluoro-5-methylchroman-6-yl)-2-(3-fluorobenzamido)-5-methylpyrazolo[1,5-a]pyrimidin-6-yl)acetic acid] |  | < 100 |
| CCCCOC(=O)Nc1cc2nc(C)c([C@H](OC(C)(C)C)C(=O)O)c(-c3cc(F)c4c(c3C)CCCO4)n2n1 [Example 34, (2S)-2-(tert-butoxy)-2-(2-((butoxycarbonyl)amino)-7-(8-fluoro-5-methylchroman-6-yl)-5-methylpyrazolo[1,5-a]pyrimidin-6-yl)acetic acid] |  | < 100 |
| Cc1nc2cc(NC(=O)C(=O)c3c[nH]c4ccccc34)nn2c(-c2cc(F)c3c(c2C)CCCO3)c1[C@H](OC(C)(C)C)C(=O)O [Example 31, (2S)-2-(2-(2-(1H-indol-3-yl)-2-oxoacetamido)-7-(8-fluoro-5-methylchroman-6-yl)-5-methylpyrazolo[1,5-a]pyrimidin-6-yl)-2-tert-butoxyacetic acid] |  | < 100 |
| Cc1nc2cc(NC(=O)OCC[Si](C)(C)C)nn2c(-c2cc(F)c3c(c2C)CCCO3)c1[C@H](OC(C)(C)C)C(=O)O [Example 36, (2S)-2-(tert-butoxy)-2-(7-(8-fluoro-5-methylchroman-6-yl)-5-methyl-2-(((2-(trimethylsilyl)ethoxy)carbonyl)amino)pyrazolo[1,5-a]pyrimidin-6-yl)acetic acid] |  | < 100 |
| CCCCCC(=O)Nc1cc2nc(C)c([C@H](OC(C)(C)C)C(=O)O)c(-c3cc(F)c4c(c3C)CCCO4)n2n1 [Example 17, (2S)-2-tert-butoxy-2-(7-(8-fluoro-5-methylchroman-6-yl)-2-hexanamido-5-methylpyrazolo[1,5-a]pyrimidin-6-yl)acetic acid] |  | < 100 |
| COc1cccc(C(=O)Nc2cc3nc(C)c([C@H](OC(C)(C)C)C(=O)O)c(-c4cc(F)c5c(c4C)CCCO5)n3n2)c1 [Example 6, (2S)-2-tert-butoxy-2-(7-(8-fluoro-5-methylchroman-6-yl)-2-(3-methoxybenzamido)-5-methylpyrazolo[1,5-a]pyrimidin-6-yl)acetic acid] |  | < 100 |
